{"source": "patent US20100273205A1", "about": "“Magnetic resonance imaging contrast agents” (priority 2005, published 2010)", "tested_on": "formalin-fixed visual cortex (gray and white matter)", "experiment": "LFB relaxation enhancement, inversion-recovery spin-echo and multi-echo spin-echo MR at 14T", "design": "species or system human", "conditions": "LFB in 95% ethanol then Li2CO3, versus formalin control", "procedure": "Formalin-fixed samples of visual cortex, approximately 1 cm in thickness, were immersed in a mixture of LFB dissolved in a solvent of 95% ethanol (500 mg LFB in 50 ml ethanol) for durations between 48 hours and 3 months. Following LFB staining, the tissue was rinsed in 70% ethanol, rinsed in distilled water, and then immersed in an aqueous solution of lithium carbonate(Li2CO3) (0.25 g Li2CO3 in 500 mL water) until gray-white matter contrast had increased, ranging between approximately 5 minutes and 24 hours. Next, the tissue was rinsed twice more in 70% ethanol and lastly in distilled water. Additional control samples were prepared with 1) formalin only or 2) 95% ethanol followed by immersion in Li2CO3.\nTissue samples were blotted and then immersed in perfluoropolyether (Fomblin, Ausimont USA, Thorofare, N.J.) in a low-pressure environment. […] The low-pressure environment is used to remove artifact-inducing air bubbles from within the tissue.\nData was acquired using a 10 mm birdcage coil in a vertical bore 14T magnet (Magnex Scientific, Oxford, England), with an 89-mm bore and 100 G/cm gradient coil. An inversion-recovery prepared spin-echo sequence and a multi-echo spin-echo sequence were used to determine T1 and T2, respectively. Parameters were estimated in three regions of interest (ROIs), outer gray matter (GMo), inner gray matter (GMi), and white matter (WM), using a nonlinear least-squares fitting routine using the following equations, a:\nSIIR−SE=Mo(1−2αe^−TIIT^1)SISE∝Moe^−TEIT^2\nwhere α represents flip angle deviation from 180° and Mo is the equilibrium magnetization.", "data": [{"substance": "Luxol fast blue [LFB]", "values": [{"measurement": "decrease of T1 in inner gray matter (GMi)", "value": 41, "unit": "%"}, {"measurement": "decrease of T1 in outer gray matter (GMo)", "value": 30, "unit": "%"}, {"measurement": "decrease of T1 in white matter (WM)", "value": 47, "unit": "%"}]}]}
